Source: patent US20240316047A1, “INHIBITORS OF RNA HELICASE DHX9 AND USES THEREOF” (ACCENT THERAPEUTICS, INC., priority 2022, published 2024)

Target: Human recombinant DHX9 protein (Homo sapiens (Human), UniProt Q08211)
Experiment: DHX9 ATPase assay (ADP-Glo)
Format: biochemical
Settings: for IC50: read-out: DHX9 Biochemical Inflection Point

Sequence of Human recombinant DHX9 protein (Q08211 whole entry): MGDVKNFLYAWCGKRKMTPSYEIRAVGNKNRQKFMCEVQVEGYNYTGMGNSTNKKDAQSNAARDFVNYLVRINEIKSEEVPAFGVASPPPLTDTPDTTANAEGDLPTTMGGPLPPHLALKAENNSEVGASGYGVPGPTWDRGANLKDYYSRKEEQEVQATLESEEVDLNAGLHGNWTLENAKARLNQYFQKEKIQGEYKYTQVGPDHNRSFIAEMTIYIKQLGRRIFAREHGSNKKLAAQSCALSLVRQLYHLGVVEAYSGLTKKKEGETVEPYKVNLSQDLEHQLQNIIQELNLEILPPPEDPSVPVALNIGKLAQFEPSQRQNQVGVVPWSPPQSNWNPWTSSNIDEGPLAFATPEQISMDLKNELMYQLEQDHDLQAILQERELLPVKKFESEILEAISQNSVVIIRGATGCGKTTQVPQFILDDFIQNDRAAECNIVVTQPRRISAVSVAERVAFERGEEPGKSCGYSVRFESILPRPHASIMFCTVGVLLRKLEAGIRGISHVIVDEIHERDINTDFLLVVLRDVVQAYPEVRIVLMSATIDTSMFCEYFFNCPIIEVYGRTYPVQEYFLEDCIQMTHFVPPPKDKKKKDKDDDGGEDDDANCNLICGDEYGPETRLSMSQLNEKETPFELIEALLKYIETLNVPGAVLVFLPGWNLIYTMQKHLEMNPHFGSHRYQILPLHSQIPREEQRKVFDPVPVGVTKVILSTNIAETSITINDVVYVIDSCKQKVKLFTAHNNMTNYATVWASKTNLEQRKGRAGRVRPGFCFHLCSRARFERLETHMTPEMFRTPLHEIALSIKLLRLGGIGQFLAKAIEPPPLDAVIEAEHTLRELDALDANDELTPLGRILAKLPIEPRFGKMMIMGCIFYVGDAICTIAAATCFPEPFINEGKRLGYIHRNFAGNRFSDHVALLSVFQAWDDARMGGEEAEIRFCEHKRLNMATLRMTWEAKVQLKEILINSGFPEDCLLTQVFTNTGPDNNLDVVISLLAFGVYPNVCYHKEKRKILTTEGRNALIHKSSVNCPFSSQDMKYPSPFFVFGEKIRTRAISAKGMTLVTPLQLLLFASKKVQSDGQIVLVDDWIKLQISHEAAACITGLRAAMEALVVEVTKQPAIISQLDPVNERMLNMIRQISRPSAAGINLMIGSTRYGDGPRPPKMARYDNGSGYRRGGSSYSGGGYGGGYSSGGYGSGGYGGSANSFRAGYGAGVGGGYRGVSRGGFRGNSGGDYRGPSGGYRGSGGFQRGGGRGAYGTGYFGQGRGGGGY

Row | SMILES | DHX9 Biochemical Max Inhibition | IC50
1 | CS(=O)(=O)Nc1cc(Cl)cc(NC(=O)c2cc(-c3ncccc3OCc3ccccc3)c(CO)s2)c1 [Example 216] | 78% | 4.4 nM
2 | Cc1cc(F)cc(C#N)c1-c1cc(C(=O)Nc2cc(Cl)cc(NS(C)(=O)=O)c2)cn1C [Example 659] | 50.7 | 68.8 nM
3 | Cc1cc(C(=O)Nc2cc(Cl)cc(NS(C)(=O)=O)c2)cn1-c1ccc(C(F)(F)F)cn1 [Example 443] | 76.6 | 59 nM
4 | CS(=O)(=O)Nc1cc(Cl)cc(NC(=O)c2cccc(-c3cccc(C#N)c3)c2)c1 [Example 13] | 41.7% | 1150 nM
5 | CN1CCN(c2ccc(-n3cc(C(=O)Nc4cc(Br)cc(NS(C)(=O)=O)c4)cn3)nc2)CC1=O [Example 88] | 54.2% | 7.1 nM
6 | CC(C)C(=O)N1CCN(c2ccc(-n3cc(C(=O)Nc4cc(Cl)cc(NS(C)(=O)=O)c4)cn3)nc2)CC1 [Example 149, N-(3-chloro-5-(methylsulfonamido)phenyl)-1-(5-(4-isobutyrylpiperazin-1-yl)pyridin-2-yl)-1H-pyrazole-4-carboxamide] | 65.4% | 19.9 nM
7 | Cn1cc(C(=O)Nc2cc(Cl)cc(NS(C)(=O)=O)c2)cc1-c1ncc(N2CC[Si](C)(C)CC2)cc1F [Example 470] | 93.8 | 125 nM
8 | Cc1cc(C(=O)Nc2cc(Cl)cc(NS(C)(=O)=O)c2)cn1-c1ccc(N2CCOC(C)(C)C2)cn1 [Example 272] | 71.6% | 5.4 nM
9 | Cc1sc(C(=O)Nc2cc(Cl)cc(NS(C)(=O)=O)c2)cc1-c1ncc(F)cc1Cl [Example 359] | 68.3% | 54.9 nM
10 | CS(=O)(=O)Nc1cc(Br)cc(NC(=O)c2cnn(-c3cc(C#N)ccc3OCc3ccccc3)c2)c1 [Example 67] | 54% | 154 nM
11 | Cc1sc(C(=O)Nc2cc(Cl)cc(NS(C)(=O)=O)c2)cc1-c1ncc(F)cc1-c1ccc(=O)n(C)c1 [Example 606] | 71.8 | 26 nM
12 | CS(=O)(=O)Nc1cc(Cl)cc(NC(=O)c2cnn(-c3ccc(C4CCOCC4)cn3)c2)c1 [Example 190] | 68.8% | 19.1 nM
13 | Cn1cc(C(=O)Nc2cc(Cl)cc(NS(C)(=O)=O)c2)cc1-c1ncc(N2CC(F)C2)cn1 [Example 598] | 72.1 | 16.4 nM
14 | Cn1cc(C(=O)Nc2cc(Cl)cc(NS(C)(=O)=O)c2)cc1Br [Example 83, 5-bromo-N-(3-chloro-5-(methylsulfonamido)phenyl)-1-methyl-1H-pyrrole-3-carboxamide] | 60.7% | 47.8 nM
15 | CCS(=O)(=O)Nc1cc(Cl)cc(NC(=O)c2cc(-c3ncc(OC)cc3F)c(C)s2)c1 [Example 360] | 56.5% | 40.9 nM
16 | CN(c1ncccn1)c1cccnc1-c1csc(C(=O)Nc2cc(Cl)cc(NS(C)(=O)=O)c2)c1 [Example 238] | 72.9% | 22.9 nM
17 | Cc1cc(C(=O)Nc2cc(Cl)cc(NS(C)(=O)=O)c2)cn1-c1ccc(N2CC3CC3C2)cn1 (stereo not drawn) [Example 411] | 74.2 | 41.6 nM
18 | Cc1sc(C(=O)Nc2cc(Cl)cc(NS(C)(=O)=O)c2)cc1-c1ncc(N2CC(C(F)(F)F)C2)cn1 [Example 489] | 68.7 | 29.9 nM
19 | Cc1cc(C(=O)Nc2cc(Cl)cc(NS(C)(=O)=O)c2)cn1-c1ccc(N2CC3COCC3C2)cn1 (stereo not drawn) [Example 405] | 93.9 | 5.2 nM
20 | Cc1cccnc1-c1csc(C(=O)Nc2cc(F)cc(NS(C)(=O)=O)c2)c1 [Example 334] | 81.5% | 10.9 nM
21 | Cc1cc(C(=O)Nc2cc(Cl)cc(NS(C)(=O)=O)c2)cn1-c1ncc(N2CC(F)(F)C2)cc1Cl [Example 406] | 75.7 | 55.1 nM
22 | Cc1cccn2cc(C(=O)Nc3cc(Cl)cc(NS(C)(=O)=O)c3)cc12 [Example 329] | 66.5% | 139 nM
23 | CS(=O)(=O)Nc1cc(Cl)cc(NC(=O)c2cc(-c3ncc(C(F)(F)F)cc3F)cs2)c1 [Example 371] | 65.3% | 140 nM
24 | Cn1cc(C(=O)Nc2cc(Cl)cc(NS(C)(=O)=O)c2)cc1-c1ccc(N2CC3(COC3)C2)cn1 [Example 277] | 72.5% | 4.3 nM
25 | COc1cnc(-c2csc(C(=O)Nc3cc(Cl)cc(NS(C)(=O)=O)c3)c2)nc1 [Example 340] | 65.6% | 
26 | Cc1cc(C(=O)Nc2cc(Cl)cc(NS(C)(=O)=O)c2)cn1-c1ccc(N2C3CCC2CC3)cn1 [Example 523] | 64.1 | 31.4 nM
27 | CC(C)(O)COc1cccnc1-n1cc(C(=O)Nc2cc(Cl)cc(NS(C)(=O)=O)c2)cn1 [Example 195] | 67.1% | 35.3 nM
28 | Cc1cc(C(=O)Nc2cc(Cl)cc(NS(C)(=O)=O)c2)cn1-c1ncc(N2CCC(F)(F)C2)cn1 [Example 409] | 65.7 | 29.7 nM

Row | SMILES | DHX9 Biochemical Max Inhibition | IC50
29 | CN1CC(Oc2cnc(-c3cc(C(=O)Nc4cc(Cl)cc(NS(C)(=O)=O)c4)cn3CC(F)F)nc2)C1 [Example 679] | 70.2 | 12.5 nM
30 | Cn1cc(C(=O)Nc2cc(Cl)cc(NS(C)(=O)=O)c2)cc1-c1ccc(N2CC(F)C2)cn1 [Example 539] | 76 | 18.1 nM
31 | CS(=O)(=O)Nc1cc(Cl)cc(NC(=O)c2cnn(-c3ncccc3-c3cncc(F)c3)c2)c1 [Example 392] | 79.3 | 2.9 nM
32 | Cn1cc(C(=O)Nc2cc(Cl)cc(NS(C)(=O)=O)c2)cc1-c1ncc(N2CC3(C2)CC(F)(F)C3)cn1 [Example 492] | 62.3 | 6.6 nM
33 | Cc1cccnc1-c1nc(C(=O)Nc2cc(Cl)cc(NS(C)(=O)=O)c2)cn1C [Example 156] | 51.2% | 695 nM
34 | COc1cnc(-c2cc(C(=O)Nc3cc(Cl)cc(NS(C)(=O)=O)c3)sc2C)c(C)c1 [Example 361] | 88.8% | 
35 | Cn1cc(C(=O)Nc2cc(Cl)cc(NS(C)(=O)=O)c2)cc1-c1ncc(N2CC(C(F)(F)F)C2)cc1F [Example 524, N-(3-chloro-5-methanesulfonamidophenyl)-5-{3-fluoro-5-[3-(trifluoromethyl)azetidin-1-yl]pyridin-2-yl}-1-methyl-1H-pyrrole-3-carboxamide] | 62.65 | 32.9 nM
36 | CS(=O)(=O)Nc1cc(Cl)cc(NC(=O)c2cc(N3CCN(CC(F)(F)F)CC3)cs2)c1 [Example 246] | 67.5% | 186 nM
37 | Cc1cc(C(=O)Nc2cc(F)cc(NS(C)(=O)=O)c2)n[nH]1 [Example 3] | 76.4% | 648 nM
38 | Cc1sc(C(=O)Nc2cc(Cl)cc(NS(C)(=O)=O)c2)cc1-c1ncc(O)cn1 [Example 583] | 72.5 | 4.9 nM
39 | CSc1cnc(-n2cc(C(=O)Nc3cc(Cl)cc(NS(C)(=O)=O)c3)cc2C)nc1 [Example 658] | 73.1 | 53.9 nM
40 | Cc1sc(C(=O)Nc2cc(Cl)cc(NS(C)(=O)=O)c2)cc1-c1nccn1CCc1ccccc1 [Example 698] | 75.4 | 1050 nM
41 | CS(=O)(=O)Nc1cc(Cl)cc(NC(=O)c2cc(-c3ccc(N4CCOCC4)cn3)n(CC(F)(F)F)c2)c1 [Example 275] | 75.1% | 76.2 nM
42 | CS(=O)(=O)Nc1cc(Cl)cc(NC(=O)c2cnn(-c3ncccc3C#N)c2)c1 [Example 46] | 57.2% | 47.3 nM
43 | CS(=O)(=O)Nc1cc(Br)cc(NC(=O)c2cc(-c3ccccc3OCc3ccccc3)cs2)c1 [Example 30] | 40.5% | 787 nM
44 | Cc1cc(C(=O)Nc2cc(Cl)cc(NS(C)(=O)=O)c2)cn1-c1ccc(N2CC3(COC3)C2)cn1 [Example 276] | 73.8% | 4.7 nM
45 | Cn1cc(C(=O)Nc2cc(Cl)cc(NS(C)(=O)=O)c2)cc1-c1ncc(OC(F)F)cn1 [Example 553] | 80.2 | 20.3 nM
46 | Cc1sc(C(=O)Nc2cc(Cl)cc(NS(C)(=O)=O)c2)cc1-c1ncc(S(C)(=O)=O)cn1 [Example 711] | 69.3 | 32.1 nM
47 | CS(=O)(=O)Nc1cc(Cl)cc(NC(=O)c2cnn(-c3ncccc3C(F)(F)F)c2)c1 [Example 47] | 64.7% | 269 nM
48 | CS(=O)(=O)Nc1cc(Cl)cc(NC(=O)c2cnn(-c3ncccc3OCc3nccs3)c2)c1 [Example 205] | 71.4% | 22.6 nM
49 | CS(=O)(=O)Nc1cc(Cl)cc(NC(=O)c2cnn(-c3ncccc3OCc3cnco3)c2)c1 [Example 66] | 62.9% | 56.6 nM
50 | Cc1cccnc1-n1cc(C(=O)Nc2cc(Cl)cc(NS(C)(=O)=O)c2)cc1C [Example 130] | 70.4% | 39.6 nM
51 | Cn1cc(C(=O)Nc2cc(Cl)cc(NS(C)(=O)=O)c2)cc1-c1ncc(N2CCC(F)(F)CC2)cc1F [Example 469] | 83.4 | 22.5 nM
52 | Cn1cc(C(=O)Nc2cc(Cl)cc(NS(=O)(=O)C3CC3)c2)cc1-c1ccc(N2CC(F)(F)C2)cn1 [Example 530] | 83.7 | 427 nM
53 | CS(=O)(=O)Nc1cc(Cl)cc(NC(=O)c2cnn(-c3ccccc3OCc3cccc(F)c3)c2)c1 [Example 210] | 71.3% | 3.6 nM
54 | Cc1sc(C(=O)Nc2cc(Cl)cc(NS(C)(=O)=O)c2)cc1-c1ncc(N2CCC3(CC2)CC3)cc1F [Example 467] | 99.3 | 155 nM
55 | CCOc1cnc(-n2cc(C(=O)Nc3cc(Cl)cc(NS(C)(=O)=O)c3)cc2C(F)(F)F)nc1 [Example 693] | 64.9 | 408 nM
